According to ChEMBL document CHEMBL1128555, “Derivatives of 5-[[1-(4'-carboxybenzyl)imidazolyl]methylidene]hydantoins as orally active angiotensin II receptor antagonists” (J Med Chem, 1995):

Experiments:
[1] = biological target: T1, Angiotensin II receptor (AT-1) type-1 (Rattus norvegicus, UniProt P29089+P25095); assay: Binding affinity expressed as IC50 to the Angiotensin II receptor, type 1, from rat liver membrane
T1 sequence (P29089 whole entry): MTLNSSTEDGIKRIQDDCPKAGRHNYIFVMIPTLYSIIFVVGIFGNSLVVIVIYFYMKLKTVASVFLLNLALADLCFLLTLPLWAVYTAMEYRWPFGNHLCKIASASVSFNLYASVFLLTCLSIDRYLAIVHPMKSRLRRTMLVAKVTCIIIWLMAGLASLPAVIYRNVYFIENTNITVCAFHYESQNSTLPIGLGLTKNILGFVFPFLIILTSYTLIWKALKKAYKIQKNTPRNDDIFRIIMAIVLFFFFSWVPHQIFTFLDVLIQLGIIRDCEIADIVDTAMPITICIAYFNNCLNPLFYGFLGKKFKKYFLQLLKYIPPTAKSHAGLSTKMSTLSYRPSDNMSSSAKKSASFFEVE
T1 sequence (P25095 whole entry): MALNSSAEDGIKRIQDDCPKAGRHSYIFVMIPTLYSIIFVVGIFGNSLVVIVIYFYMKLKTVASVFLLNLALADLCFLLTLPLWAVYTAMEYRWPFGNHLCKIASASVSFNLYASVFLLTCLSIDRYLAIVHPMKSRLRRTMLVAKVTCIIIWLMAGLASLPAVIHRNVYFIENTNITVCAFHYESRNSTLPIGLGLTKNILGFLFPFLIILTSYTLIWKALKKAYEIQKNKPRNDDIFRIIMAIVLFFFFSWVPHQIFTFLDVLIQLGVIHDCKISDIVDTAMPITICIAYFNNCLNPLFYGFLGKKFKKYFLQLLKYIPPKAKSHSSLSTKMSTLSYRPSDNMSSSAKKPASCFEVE

[2] = biological target: Angiotensin II receptor (AT-1) type-1 (Rattus norvegicus) (UniProt P29089+P25095); assay: Antihypertensive activity in renal hypertensive rats (RHR) at 30 mg/Kg dose after oral administration; assay type: functional, organism-based
[3] = biological target: Angiotensin II receptor type-1 (Oryctolagus cuniculus) (UniProt P34976); assay: Inhibition of angiotensin II induced contraction in rabbit aortic ring, activity is expressed as IC50
Sequence of Angiotensin II receptor type-1 (Oryctolagus cuniculus) (P34976 whole entry, looked up): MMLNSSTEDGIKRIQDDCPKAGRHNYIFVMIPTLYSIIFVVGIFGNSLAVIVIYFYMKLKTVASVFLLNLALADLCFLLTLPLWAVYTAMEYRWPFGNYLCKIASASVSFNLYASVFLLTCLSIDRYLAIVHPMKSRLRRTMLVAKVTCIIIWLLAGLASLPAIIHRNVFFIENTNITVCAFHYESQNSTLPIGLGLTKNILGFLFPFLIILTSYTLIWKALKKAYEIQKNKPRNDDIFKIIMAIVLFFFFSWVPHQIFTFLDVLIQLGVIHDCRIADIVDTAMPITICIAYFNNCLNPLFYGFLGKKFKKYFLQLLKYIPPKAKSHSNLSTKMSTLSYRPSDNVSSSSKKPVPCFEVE

| Structure (SMILES) | IC50 [1] [nM] | IC50 [3] [nM] | Maximum blood pressure change [2] [%] |
| --- | --- | --- | --- |
| CCCCc1ncc(/C=C2/C(=O)N(CCC)C(=O)N2Cc2csc(C)n2)n1Cc1ccc(C(=O)OC)cc1 | 9 | – | – |
| CCCCc1ncc(/C=C2\C(=O)NC(=O)N2CCCC)n1Cc1ccc(-c2ccccc2C(=O)OC)cc1 | 9.9 | – | – |
| CCCCCCN1C(=O)N(CCCC)C(=O)/C1=C/c1cnc(CCCC)n1Cc1ccc(C(=O)OC)cc1 | 40.2 | – | – |
| CCCCc1ncc(/C=C2\C(=O)NC(=O)N2CCCC)n1Cc1ccc(-c2ccccc2-c2nn[nH]n2)cc1 | 2.7 | – | – |
| CCCCc1ncc(/C=C2/C(=O)NC(=O)N2Cc2cccs2)n1Cc1ccc(C(=O)OC)cc1 | 7.1 | 28 | -19 |
| CCCCc1ncc(/C=C2/C(=O)NC(=O)N2CCCC)n1Cc1ccc(-c2ccccc2-c2nn[nH]n2)cc1 | 1.4 | 40 | 0 |
| CCCCc1ncc(/C=C2/C(=O)N(CCCC)C(=O)N2Cc2ccc(C(F)(F)F)cc2)n1Cc1ccc(C(=O)OC)cc1 | 159 | – | – |
| CCCCc1ncc(/C=C2/C(=O)N(COC)C(=O)N2Cc2csc(C)n2)n1Cc1ccc(C(=O)OC)cc1 | 47.8 | – | – |
| CCCCc1ncc(/C=C2/C(=O)N(CCCC)C(=O)N2CC2CCCCC2)n1Cc1ccc(C(=O)OC)cc1 | 3.3 | – | – |
| CCCCc1ncc(/C=C2/C(=O)N(CCCC)C(=O)N2CCCC(F)(F)F)n1Cc1ccc(C(=O)OC)cc1 | 6.4 | – | – |
| CCCCc1ncc(/C=C2/C(=O)N(C)C(=O)N2Cc2csc(C)n2)n1Cc1ccc(C(=O)OC)cc1 | 16.6 | – | – |
| CCCCc1ncc(/C=C2/C(=O)N(CCCC)C(=O)N2CCCC)n1Cc1ccc(C(=O)OC)cc1 | 8.5 | 460 | -27 |
| CCCCc1ncc(/C=C2/C(=O)NC(=O)N2CCCC)n1Cc1ccc(-c2ccccc2C(=O)OC)cc1 | 15.9 | – | – |
| CCCCc1ncc(/C=C2/C(=O)N(CCCC)C(=O)N2Cc2ccc(OC)cc2)n1Cc1ccc(C(=O)OC)cc1 | 9.8 | – | – |
| CCCCc1ncc(/C=C2/C(=O)N(CCCC)C(=O)N2Cc2ccc3ccccc3c2)n1Cc1ccc(C(=O)OC)cc1 | 104 | – | – |
| CCCCc1ncc(/C=C2/C(=O)N(CCCC)C(=O)N2CCc2ccccc2)n1Cc1ccc(C(=O)OC)cc1 | 31 | – | – |
| CCCCc1ncc(/C=C2\C(=O)NC(=O)N2CCCC)n1Cc1ccc(NS(=O)(=O)C(F)(F)F)cc1 | 4.2 | – | – |
| CCCCc1ncc(/C=C2/C(=O)N(CC)C(=O)N2Cc2csc(C)n2)n1Cc1ccc(C(=O)OC)cc1 | 11.1 | – | – |
| CCCCc1ncc(/C=C2/C(=O)N(CCCC)C(=O)N2Cc2ccc(C(=O)OC)cc2)n1Cc1ccc(C(=O)OC)cc1 | 14.3 | – | – |
| CCCCc1ncc(/C=C2/C(=O)N(CCCC)C(=O)N2C=C(C)C)n1Cc1ccc(C(=O)OC)cc1 | 11.1 | – | – |
| CCCCc1ncc(/C=C2\C(=O)NC(=O)N2CCCC)n1Cc1ccc(-c2nn[nH]n2)cc1 | 2.5 | – | – |

| Structure (SMILES) | IC50 [1] [nM] | IC50 [3] [nM] | Maximum blood pressure change [2] [%] |
| --- | --- | --- | --- |
| CCCCCN1C(=O)N(CCCC)C(=O)/C1=C/c1cnc(CCCC)n1Cc1ccc(C(=O)OC)cc1 | 6.1 | – | – |
| CCCCc1ncc(/C=C2/C(=O)N(CCCC)C(=O)N2Cc2csc(C)n2)n1Cc1ccc(C2(C(=O)O)CCCC2)cc1 | 1.9 | – | -16 |
| CCCCc1ncc(/C=C2/C(=O)N(CCCC)C(=O)N2Cc2ccc(C)cc2)n1Cc1ccc(C(=O)OC)cc1 | 34.6 | – | – |
| CCCCc1ncc(/C=C2/C(=O)N(CCCC)C(=O)N2Cc2ccc(C#N)cc2)n1Cc1ccc(C(=O)OC)cc1 | 11.1 | – | – |
| CCCCc1ncc(/C=C2/C(=O)N(CCCC)C(=O)N2CCCC)n1Cc1ccc(-c2ccccc2C(=O)OC)cc1 | 29.6 | – | – |
| CCCCc1ncc(/C=C2/C(=O)N(CCCC)C(=O)N2Cc2cc(C)on2)n1Cc1ccc(C(=O)OC)cc1 | 8.5 | – | – |
| CCCCc1ncc(/C=C2/C(=O)N(CO)C(=O)N2Cc2csc(C)n2)n1Cc1ccc(C(=O)OC)cc1 | 35.7 | – | – |
| CCCCc1ncc(/C=C2/C(=O)N(CCCC)C(=O)N2Cc2ccc([N+](=O)[O-])cc2)n1Cc1ccc(C(=O)OC)cc1 | 16.9 | – | – |
| CCCCc1ncc(/C=C2/C(=O)N(CCCC)C(=O)N2Cc2csc(C)n2)n1Cc1ccc(C2(C(=O)OC)CCCC2)cc1 | 8 | – | – |
| CCCCc1ncc(/C=C2/C(=O)N(CCCC)C(=O)N2Cc2c[nH]c(C)n2)n1Cc1ccc(C(=O)OC)cc1 | 245 | – | – |
| CCCCc1ncc(/C=C2/C(=O)N(CCCC(F)(F)F)C(=O)N2Cc2csc(C)n2)n1Cc1ccc(C(=O)OC)cc1 | 70 | – | – |
| CCCCc1ncc(/C=C2/C(=O)N(CCCC)C(=O)N2Cc2nn[nH]n2)n1Cc1ccc(C(=O)OC)cc1 | 41.7 | – | – |
| CCCCc1ncc(/C=C2\C(=O)NC(=O)N2Cc2ccccc2)n1Cc1ccc(C(=O)O)cc1 | 3.4 | > 100 | – |
| CCCCc1ncc(/C=C2/C(=O)N(CCCC)C(=O)N2Cc2c(C)noc2C)n1Cc1ccc(C(=O)OC)cc1 | 198 | – | – |
| CCCCc1ncc(/C=C2/C(=O)NC(=O)N2CCC(C)C)n1Cc1ccc(C(=O)O)cc1 | 6.6 | 32 | – |
| CCCCc1ncc(/C=C2/C(=O)N(CCCO)C(=O)N2Cc2csc(C)n2)n1Cc1ccc(C(=O)OC)cc1 | 47.9 | – | – |
| CCCCc1ncc(/C=C2/C(=O)N(CCCC)C(=O)N2C(c2ccccc2)c2ccccc2)n1Cc1ccc(C(=O)OC)cc1 | 884 | – | – |
| CCCCc1ncc(/C=C2/C(=O)N(CCSC)C(=O)N2Cc2csc(C)n2)n1Cc1ccc(C(=O)OC)cc1 | 9.6 | – | – |
| CCCCc1ncc(/C=C2\C(=O)NC(=O)N2CCC(C)C)n1Cc1ccc(C(=O)O)cc1 | 4.9 | 74 | – |
| CCCCc1ncc(/C=C2/C(=O)NC(=O)N2Cc2ccccc2)n1Cc1ccc(C(=O)O)cc1 | 4 | 35 | – |

The next lines start with results.

| IC50 [1] [nM] | IC50 [3] [nM] | Structure (SMILES) | Maximum blood pressure change [2] [%] |
| --- | --- | --- | --- |
| 0.6 | – | CCCCc1ncc(/C=C2\C(=O)N(CCCC)C(=O)N2Cc2cccs2)n1Cc1ccc(C(=O)O)cc1 | – |
| 14.6 | – | CCCCc1ncc(/C=C2/C(=O)N(CCCC)C(=O)N2CCc2ccsc2)n1Cc1ccc(C(=O)OC)cc1 | – |
| 2.8 | 28 | CCCCc1ncc(/C=C2/C(=O)NC(=O)N2CCCC)n1Cc1ccc(C(=O)O)cc1 | -17 |
| 17.8 | – | CCCCc1ncc(/C=C2/C(=O)N(CCCC)C(=O)N2Cc2ccc(Br)s2)n1Cc1ccc(C(=O)OC)cc1 | – |
| 8.3 | > 100 | CCCCc1ncc(/C=C2/C(=O)N(CCCC)C(=O)N2Cc2ccoc2)n1Cc1ccc(C(=O)OC)cc1 | -22 |
| 14.5 | – | CCCCc1ncc(/C=C2/C(=O)N(CCCC)C(=O)N2CCc2cccs2)n1Cc1ccc(C(=O)OC)cc1 | – |
| 10.1 | > 100 | CCCCc1ncc(/C=C2/C(=O)N(CCCC)C(=O)N2Cc2ccno2)n1Cc1ccc(C(=O)OC)cc1 | -23 |
| 1.7 | – | CCCCc1ncc(/C=C2\C(=O)N(CCCC)C(=O)N2Cc2csc(C)n2)n1Cc1ccc(C(=O)O)cc1 | – |
| 4.9 | – | CCCCc1ncc(/C=C2/C(=O)N(CCCC)C(=O)N2Cc2ccc(O)c(O)c2)n1Cc1ccc(C(=O)OC)cc1 | – |
| 18.5 | – | CCCCc1ncc(/C=C2/C(=O)N(CCCC)C(=O)N2Cc2cccc(C)c2)n1Cc1ccc(C(=O)OC)cc1 | – |
| 17.6 | 500 | CCCCc1ncc(/C=C2/C(=O)N(CCCC)C(=O)N2Cc2ccc(Cl)cc2)n1Cc1ccc(C(=O)OC)cc1 | -15 |
| 21.9 | – | CCCCc1ncc(/C=C2/C(=O)N(CCCC)C(=O)N2Cc2cc(Br)cs2)n1Cc1ccc(C(=O)OC)cc1 | – |
| 4.2 | – | CCCCc1ncc(/C=C2/C(=O)N(CCCC)C(=O)N2Cc2ccc(C(=O)OC)s2)n1Cc1ccc(C(=O)OC)cc1 | – |
| 25.4 | – | CCCCc1ncc(/C=C2/C(=O)N(CCCC)C(=O)N2Cc2csc(Br)c2)n1Cc1ccc(C(=O)OC)cc1 | – |
| 23.9 | – | CCCCc1ncc(/C=C2/C(=O)N(CCCC)C(=O)N2Cc2sccc2C)n1Cc1ccc(C(=O)OC)cc1 | – |
| 260 | – | CCCCc1ncc(/C=C2/C(=O)N(CCCC)C(=O)N2Cc2cccc[n+]2[O-])n1Cc1ccc(C(=O)OC)cc1 | – |
| 4.8 | – | CCCCc1ncc(/C=C2/C(=O)N(CCCC)C(=O)N2Cc2ccsc2)n1Cc1ccc(C(=O)OC)cc1 | -36 |
| 0.5 | – | CCCCc1ncc(/C=C2\C(=O)N(CCCC)C(=O)N2CCCC)n1Cc1ccc(C(=O)O)cc1 | – |
| 12.4 | – | CCCCc1ncc(/C=C2/C(=O)N(CCCC)C(=O)N2Cc2ccccc2)n1Cc1ccc(C(=O)OC)cc1 | – |
| 0.5 | – | CCCCc1ncc(/C=C2\C(=O)N(CCCC)C(=O)N2Cc2csc(N)n2)n1Cc1ccc(C(=O)O)cc1 | – |
| 54.5 | – | CCCCc1ncc(/C=C2/C(=O)N(CCCC)C(=O)N2Cc2c[nH]cn2)n1Cc1ccc(C(=O)OC)cc1 | – |
| 117 | – | CCCCc1ncc(/C=C2/C(=O)N(CCCC)C(=O)N2Cc2cccc(Cl)c2)n1Cc1ccc(C(=O)OC)cc1 | – |
